Like-named read-outs stand apart in the source and are kept apart here.
System: human rhabdomyosarcoma RH-30
Type: in vivo
Settings: for Average body weight change in % per mouse at nadir / Drug death (Day of death) / Regressions Complete / Regressions Partial / Tumor free survivors at day 120 / day of nadir / ΔT/ΔC in % (day 27) / Biological interpretation: 18
Method: This efficacy may be quantified, for example, as changes in tumor volume for each treated (T) and control (C) group, which are calculated for each animal and each day by subtracting the tumor volume on the day of first treatment (staging day) from the tumor volume on the specified observation day. This allows calculating the tumor growth inhibition: ΔT/ΔC=(median delta T/median delta C)×100. Individual tumor volume changes from baseline are thereafter analyzed by a non-parametric two-way ANOVA-TYPE (with factors: group and repeated days) followed by a post-hoc contrasts analysis, with Bonferroni-Holm adjustment for multiplicity, comparing all treated groups to the control group. […] A probability less than 5% (p<0.05) was considered as significant.
Based on the National Cancer Institute (NCl) standards, a ΔT/ΔC≦40% is the minimal level required to declare activity.
The tumor doubling time (in days; Td) was estimated from the plot of the log linear growth of the control group tumors in exponential growth (100 to 1000 mm^3 range) [T. H. Corbett et al., Cancer, 40: 2660-2680 (1977); F. M. Schabel et al., Cancer Drug Development, Part B, Methods in Cancer Research, 17: 3-51, New York, Academic Press Inc. (1979)].
This efficacy may also be quantified by the number of tumor regressions observed after therapy. Individual mice reporting a tumor volume ≦50% of the Day 0 measurement for two consecutive measurements over a seven day period were considered partial responders (PR). Individual mice lacking palpable tumors (<4×4 mm^2 for two consecutive measurements over a seven day period) were classified as complete responders (CR); a CR that persisted until study completion was considered a tumor-free survivor (TFS).
The animals subjected to the experiment are subcutaneously grafted unilaterally with approximately 30 mg of a tumor fragment on day 0. The animals are implanted with a human tumor xenografted in immunocompromized mice. Several days post tumor implantation, mice are randomized according to their body weight to the different groups of treatments and controls. The animals are observed every day. […] The groups are then weighed once or twice a week until the end of the trial.
The tumors are measured 1 to 5 times a week, depending on the tumor doubling time, until the tumor reaches approximately 1,000 mm^3, or until the animal dies (if this occurs before the tumor reaches 1,000 mm^3). The animals are necropsied immediately after euthanasia or death.
The selected tumor model was a human rhabdomyosarcoma RH-30, xenografted in SCID mice [Douglass E C, et al. Cytogenet Cell Genet. 1987; 45(3-4):14855.].
Treatment solutions were prepared first by mixing 1 volume of ethanolic stock solution and 1 volume of polysorbate 80, then by adding 18 volumes of glucose 5% in water.

[1] = 3.5 mg/kg per injection (total 7.0) IV days 14
[2] = 5.6 mg/kg per injection (total 11.2) IV days 14
[3] = 5.6 mg/kg per injection (total 11.2) IV days 14, listed as CABAZITAXEL
[4] = 9.0 mg/kg per injection (total 18) IV days 14
[5] = 14.5 mg/kg per injection (total 29) IV days 14
[6] = 14.5 mg/kg per injection (total 29) IV days 14, listed as CABAZITAXEL

`CO[C@H]1C(=O)[C@]2(C)[C@@H](OC)C[C@H]3OC[C@@]3(OC(C)=O)[C@H]2[C@H](OC(=O)c2ccccc2)[C@]2(O)C[C@H](OC(=O)[C@H](O)[C@@H](NC(=O)OC(C)(C)C)c3ccccc3)C(C)=C1C2(C)C` [Cabazitaxel, 4α-acetoxy-2α-benzoyloxy-5β,20-epoxy-1β-hydroxy-7β,10β-dimethoxy-9-oxo-11-taxen-13α-yl (2R,3S)-3-tert-butoxycarbonyl-amino-2-hydroxy-3-phenylpropionate] was tested, and the “Average body weight change in % per mouse at nadir” value [1] was −10.1%, the “Drug death (Day of death)” value [1] was 0/6 and the “Regressions Complete” value [1] was 0/6. The “Regressions Partial” value [1] was 0/6, the “Tumor free survivors at day 120” value [1] was 0/6 and the day of nadir [1] was “(24) day”. For the same compound, the “ΔT/ΔC in % (day 27)” value [1] was 24%, the Biological interpretation (3.5 mg/kg per injection (total 7.0) IV days 14, listed as CABAZITAXEL) was “Active” and the Biological interpretation (3.5 mg/kg per injection (total 7.0) IV days 14, listed as cabazitaxel) was “active”. For the same compound, the “Tumor volume changes from baseline: Median (nMad)” value (shortened to “Tumor volume changes from baseline”) (3.5 mg/kg, day 18) was 307 (35.6), the “Tumor volume changes from baseline” value (3.5 mg/kg, day 22) was 418 (258) and the “Tumor volume changes from baseline” value (3.5 mg/kg, day 29) was 356.5. The “Average body weight change in % per mouse at nadir” value [2] was −15.3%, the “Drug death (Day of death)” value [2] was 0/6 and the “Regressions Complete” value [2] was 2/6. The “Regressions Partial” value [2] was 5/6, the “Tumor free survivors at day 120” value [2] was 0/6 and the day of nadir [2] was “(28) day”. For the same compound, the Biological interpretation [3] was “Highly”, the “ΔT/ΔC in % (day 27)” value [3] was 0% and the Biological interpretation (5.6 mg/kg per injection (total 11.2) IV days 14, listed as cabazitaxel) was “highly active”. The “Tumor volume changes from baseline” value (5.6 mg/kg, day 18) was 164 (30.4), the “Tumor volume changes from baseline” value (5.6 mg/kg, day 19) was 203 (80.1) and the “Tumor volume changes from baseline” value (5.6 mg/kg, day 20) was 302.5. For the same compound, the “Tumor volume changes from baseline” value (5.6 mg/kg, day 22) was 192.5, the “Tumor volume changes from baseline” value (5.6 mg/kg, day 27) was 0 (130.5) and the “Tumor volume changes from baseline” value (5.6 mg/kg, day 29) was 106 (147.5). For the same compound, the “Tumor volume changes from baseline” value (5.6 mg/kg, day 33) was −85 (117.1), the “Tumor volume changes from baseline” value (5.6 mg/kg, day 39) was −139 (113.4) and the “Tumor volume changes from baseline” value (5.6 mg/kg, day 41) was −157 (113.4). The “Tumor volume changes from baseline” value (5.6 mg/kg, day 43) was −104.5, the “Tumor volume changes from baseline” value (5.6 mg/kg, day 35) was −120 (98.6) and the “Average body weight change in % per mouse at nadir” value [4] was −8.0%. The Biological interpretation [4] was “very active”, the “Drug death (Day of death)” value [4] was 0/6 and the “Regressions Complete” value [4] was 6/6. For the same compound, the “Regressions Partial” value [4] was 6/6, the “Tumor free survivors at day 120” value [4] was 5/6 and the day of nadir [4] was “(25) day”. The “ΔT/ΔC in % (day 27)” value [4] was 7%, the Biological interpretation (9.0 mg/kg per injection (total 18) IV days 14, listed as CABAZITAXEL) was “Very” and the “Tumor volume changes from baseline” value (9 mg/kg, day 18) was 138.5. The “Tumor volume changes from baseline” value (9 mg/kg, day 29) was 62.5 (91.9), the “Tumor volume changes from baseline” value (9 mg/kg, day 33) was −129 (142.3) and the “Tumor volume changes from baseline” value (9 mg/kg, day 39) was −189.5. For the same compound, the “Tumor volume changes from baseline” value (9 mg/kg, day 41) was −189.5, the “Tumor volume changes from baseline” value (9 mg/kg, day 43) was −189.5 and the “Tumor volume changes from baseline” value (9 mg/kg, day 35) was −180 (94.9). The “Average body weight change in % per mouse at nadir” value [5] was −15.0%, the “Drug death (Day of death)” value [5] was 0/6 and the “Regressions Complete” value [5] was 6/6. For the same compound, the “Regressions Partial” value [5] was 6/6, the “Tumor free survivors at day 120” value [5] was 6/6 and the day of nadir [5] was “(24) day”. For the same compound, the Biological interpretation [6] was “Highly”, the “ΔT/ΔC in % (day 27)” value [6] was <0% and the Biological interpretation (14.5 mg/kg per injection (total 29) IV days 14, listed as cabazitaxel) was “highly active”. For the same compound, the “Tumor volume changes from baseline” value (14.5 mg/kg, day 29) was −107 (150.5), the “Tumor volume changes from baseline” value (14.5 mg/kg, day 33) was −180 (66) and the “Tumor volume changes from baseline” value (14.5 mg/kg, day 46) was −194 (74.1). For the same compound, the “Tumor volume changes from baseline” value (14.5 mg/kg, day 50) was −194 (74.1), the “Tumor volume changes from baseline” value (14.5 mg/kg, day 35) was −194 (74.1) and the “Tumor volume changes from baseline” value (14.5 mg/kg, day 39) was −194 (74.1). For the same compound, the “Tumor volume changes from baseline” value (14.5 mg/kg, day 41) was −194 (74.1), the “Tumor volume changes from baseline” value (14.5 mg/kg, day 43) was −194 (74.1) and the “antitumor activity compared with docetaxel” value (conclusion of example 1) was “more active than docetaxel”.

— US20140350273A1, “PEDIATRIC USES OF CABAZITAXEL” (AVENTIS PHARMA S.A., priority 2012, published 2014)
